Assays:
[1] = system: DU-145 (prostate) human-derived tumor cell line; assay: MTT reduction antiproliferative assay, DU-145 prostate cells; type: cell-based; settings: 48 h incubation, mean of at least three experiments, read-out: EC50 ± SEM DU-145
Protocol: (§1) The oxygen-substituted diaryl ketones 3–23 were evaluated for their in vitro antiproliferative activity on a panel of four cell lines, including non-tumor fibroblasts (Balb/3T3) and three human-derived tumor cell lines, namely DU-145 (prostate), T24 (bladder) and MCF7 (breast), using the conventional microculture tetrazolium reduction assay.
(§2) These values were calculated from their effects on MTT reduction in three cancer cell lines and Balb/3T3 non transformed mouse fibroblasts as a function of their concentration during 48 h of incubation. All three cancer cell lines were similarly sensitive to these compounds. […] The biological activity differences of compounds 12 and 22 with respect to their analogues could be attributed to the 3,4,5-trimethoxy substitution on the A-phenyl ring. According to literature precedents, the 3,4,5-trimethoxyphenyl ring is considered essential for the antitubulin activity of a broad variety of antimitotic compounds [36, 38, 39, 40, 41, 42, 43, 44, 45]. […] In this context, only compound 22 have a good mean selectivity index (2.45).
(§3) Human cancer cell lines (T24, DU-145, MCF7) were cultured in high-glucose Dulbecco's modified Eagle medium (Gibco, Grand Island, NY, USA) supplemented with 10% foetal calf serum, penicillin (100 U/mL), and streptomycin (100 μg/mL). Balb/3T3 cells (normal mouse fibroblasts) were cultured in the same medium, except that the foetal calf serum was replaced by 10% newborn calf serum. All cultures were kept at 37 °C in 95% air/5% CO2 at 100% humidity. Phosphate-buffered saline (PBS) was purchased from Gibco. Cells were incubated at the indicated times at 37 °C with or without hydroquinones at various concentrations.
(§4) The cytotoxicity of the bis aryl ketones was assessed by following the reduction of MTT (3-(4,5-dimethylthiazolyl-2)-2,5-diphenyltetrazolium bromide) to formazan blue. Briefly, cells were seeded into 96-well plates at a density of 10,000 cells/well for 24 h and then incubated for 48 h with or without the compounds. Cells were then washed twice with warm PBS and incubated with MTT (0.5 mg/mL) for 2 h at 37 °C. Incubation medium was thereafter discarded and the blue formazan crystals were solubilized by adding 100 μL DMSO/well. The colour solution was subsequently read at 550 nm. Results are expressed as % of MTT reduction compared to untreated control conditions. The calculation of EC50 values was performed by using GraphPad Prism software (San Diego, CA, USA).

[2] = system: T24 (bladder) human-derived tumor cell line; assay: MTT reduction antiproliferative assay, T24 bladder cells; type: cell-based; settings: 48 h incubation, mean of at least three experiments, read-out: EC50 ± SEM T24
Protocol: as §1, §2, §3, §4

[3] = system: MCF7 (breast) human-derived tumor cell line; assay: MTT reduction antiproliferative assay, MCF7 breast cells; type: cell-based; settings: 48 h incubation, mean of at least three experiments, read-out: EC50 ± SEM MCF-7
Protocol: as §1, §2, §3, §4

[4] = system: Balb/3T3 non-tumor fibroblasts; assay: MTT reduction assay, non-tumor fibroblasts; type: cell-based; settings: Mus musculus, 48 h incubation, mean of at least three experiments, read-out: EC50 ± SEM BALB/3T3
Protocol: as §1, §2, §3, §4

[5] = system: Balb/3T3 fibroblasts vs T24, DU-145 and MCF7 tumor cells; assay: Mean selective index, fibroblasts versus tumor cells; type: cell-based; settings: EC50 values fibroblasts/EC50 values tumor cells
Protocol: These values were calculated from their effects on MTT reduction in three cancer cell lines and Balb/3T3 non transformed mouse fibroblasts as a function of their concentration during 48 h of incubation.

NCI screen panel = system: NCI screen panel; parameters: method as in PMID 9572894; settings: read-out: mean panel GI50 (growth inhibitory) value; cited from earlier work

Compound	EC50 [1] [µM]	EC50 [2] [µM]	EC50 [3] [µM]	melting point [°C]	EC50 [4] [µM]	MSI: Mean Selective Index [5]	GI50 (NCI screen panel) [µM]
COc1cc(C(=O)c2cc(O)c3ccccc3c2O)ccc1O [compound 21, (1,4-Dihydroxynaphthalen-2-yl)(4'-hydroxy-3'-methoxyphenyl)methanone]	89 ± 7.3	86.6 ± 9.6	15.7 ± 4.6	221 to 222	15.7 ± 3.9	0.45	
COc1cccc(C(=O)c2cc(O)ccc2O)c1 [compound 7, (2,5-Dihydroxyphenyl)(3'-methoxyphenyl)methanone]	166 ± 15.8	210 ± 20.5	154 ± 12.3	97 to 98	118 ± 19.5	0.68	
Cc1cccc(C(=O)c2cc(O)ccc2O)c1 [compound 5, (2,5-Dihydroxyphenyl)(3'-methylphenyl)methanone]	186 ± 17.8	202 ± 15.9	226 ± 24.2	119 to 120	100 ± 9.5	0.49	
CO[C@@]12[C@H](COC(N)=O)C3=C(C(=O)C(C)=C(N)C3=O)N1C[C@@H]1N[C@@H]12 [MIT, mitomycin C, reference compound]	14.3 ± 2.6	42.2 ± 5.8	16.8 ± 2.9		27.3 ± 3.3		
COc1ccc(C(=O)c2cc(O)c3ccccc3c2O)cc1 [compound 18, (1,4-Dihydroxynaphthalen-2-yl)(4'-methoxyphenyl)methanone]	77.5 ± 6.5	127 ± 10.6	125 ± 10.2	150 to 151	107 ± 12.3	1.03	
COc1cc(C(=O)c2cc(O)c3ccccc3c2O)cc(OC)c1OC [compound 22, (1,4-Dihydroxynaphthalen-2-yl)(3',4',5'-trimethoxyphenyl)methanone]	5.9 ± 0.8	13.5 ± 1.9	20.2 ± 4.5	189 to 191	25.1 ± 3.9	2.45	
Cc1ccccc1C(=O)c1cc(O)c2ccccc2c1O [compound 14, (1,4-Dihydroxynaphthalen-2-yl)(2'-methylphenyl)methanone]	144 ± 17.7	143 ± 9.5	152 ± 14.5	132 to 133	226 ± 25.4	1.54	
COc1cc(C(=O)c2cc(O)ccc2O)cc(OC)c1O [compound 13, (2,5-Dihydroxyphenyl)(4'-hydroxy-3',5'-dimethoxyphenyl)methanone]	113 ± 10.7	> 350	> 350	200 to 201	19.1 ± 3.1		
COc1cc(C(=O)c2cc(O)c3ccccc3c2O)cc(OC)c1O [compound 23, (1,4-Dihydroxynaphthalen-2-yl)(4'-hydroxy-3',5'-dimethoxyphenyl)methanone]	114 ± 9.5	112 ± 9.3	130 ± 14.8	173 to 174	99.6 ± 7.5	0.84	
Cc1ccccc1C(=O)c1cc(O)ccc1O [compound 4, (2,5-Dihydroxyphenyl)(2'-methylphenyl)methanone]	172 ± 19.7	172 ± 13.2	181 ± 15.8	104 to 105	184 ± 17.6	1.06	
COc1cccc2c1C(=O)c1c(O)c3c(c(O)c1C2=O)C[C@@](O)(C(=O)CO)C[C@@H]3O[C@H]1C[C@H](N)[C@H](O)[C@H](C)O1 [DOX, doxorubicin, reference compound]	0.42 ± 0.03	0.65 ± 0.07	0.33 ± 0.05		0.19 ± 0.01	0.44	
COc1ccc(C(=O)c2cc(O)ccc2O)cc1 [compound 8, (2,5-Dihydroxyphenyl)(4'-methoxyphenyl)methanone]	170 ± 15.5	168 ± 12.2	191 ± 17.5	144 to 145	85.2 ± 9.7	0.49	
COc1ccc(C(=O)c2cc(OC)c(OC)c(OC)c2)cc1O [phenstatin]							0.0601

Further compounds by falling EC50 [1], results first:

EC50 [1] [µM]	EC50 [2] [µM]	EC50 [3] [µM]	melting point [°C]	Compound	EC50 [4] [µM]	MSI: Mean Selective Index [5]	GI50 (NCI screen panel) [µM]
205 ± 21.5	186 ± 20.4	190 ± 19.2	121 to 122	O=C(c1ccccc1)c1cc(O)ccc1O [compound 3, (2,5-Dihydroxyphenyl)(phenyl)methanone]	38.5 ± 5.5	0.20	
168 ± 15.9	154 ± 14.5	177 ± 19.4	221 to 222	COc1cc(C(=O)c2cc(O)ccc2O)ccc1O [compound 11, (2,5-Dihydroxyphenyl)(4'-hydroxy-3'-methoxyphenyl)methanone]	78 ± 9.3	0.47	
158 ± 13.7	135 ± 12.8	134 ± 14.9	150 to 151	Cc1ccc(C(=O)c2cc(O)c3ccccc3c2O)cc1 [compound 16, (1,4-Dihydroxynaphthalen-2-yl)(4'-methylphenyl)methanone]	139 ± 15.2	0.98	
147 ± 15.9	137 ± 11.7	145 ± 12.7	154 to 155	Cc1cccc(C(=O)c2cc(O)c3ccccc3c2O)c1 [compound 15, (1,4-Dihydroxynaphthalen-2-yl)(3'-methylphenyl)methanone]	142 ± 13.9	0.99	
140 ± 13.6	147 ± 19.2	183 ± 17.7	79 to 81	COc1ccc(C(=O)c2cc(O)ccc2O)cc1OC [compound 10, (2,5-Dihydroxyphenyl)(3,4-dimethoxyphenyl)methanone]	35.4 ± 4.7	0.23	
139 ± 11.3	133 ± 12.4	128 ± 13.6	149 to 150	COc1cccc(C(=O)c2cc(O)c3ccccc3c2O)c1 [compound 17, (1,4-Dihydroxynaphthalen-2-yl)(3'-methoxyphenyl)methanone]	109 ± 11.1	0.82	
130 ± 12.5	150 ± 18.4	164 ± 13.8	135 to 136	COc1ccc(OC)c(C(=O)c2cc(O)ccc2O)c1 [compound 9, (2,5-Dihydroxyphenyl)(2',5'-dimethoxyphenyl)methanone]	43.7 ± 7.6	0.29	
129 ± 17.2	130 ± 10.1	> 310	160 to 161	COc1ccc(OC)c(C(=O)c2cc(O)c3ccccc3c2O)c1 [compound 19, (1,4-Dihydroxynaphthalen-2-yl)(2',5'-dimethoxyphenyl)methanone]	100 ± 8.9	0.77	
101 ± 9.5	209 ± 19.5	142 ± 15.3	135 to 136	Cc1ccc(C(=O)c2cc(O)ccc2O)cc1 [compound 6, (2,5-Dihydroxyphenyl)(4'-methylphenyl)methanone]	78.3 ± 6.4	0.57	
61.8 ± 5.6	46.8 ± 5.1	12.2 ± 3.8	212 to 213	COc1ccc(C(=O)c2cc(O)c3ccccc3c2O)cc1OC [compound 20, (1,4-Dihydroxynaphthalen-2-yl)(3',4'-dimethoxyphenyl)methanone]	2.8 ± 0.6	0.11	
1.2 ± 0.6	3.6 ± 1.4	53.6 ± 6.7	68 to 70	COc1cc(C(=O)c2cc(O)ccc2O)cc(OC)c1OC [compound 12, (2,5-Dihydroxyphenyl)(3',4',5'-trimethoxyphenyl)methanone]	1.5 ± 0.4	0.57	
